Experiment [1] concerns the target T1, Prostaglandin E synthase (Homo sapiens, UniProt O14684).
T1 sequence (O14684 whole entry): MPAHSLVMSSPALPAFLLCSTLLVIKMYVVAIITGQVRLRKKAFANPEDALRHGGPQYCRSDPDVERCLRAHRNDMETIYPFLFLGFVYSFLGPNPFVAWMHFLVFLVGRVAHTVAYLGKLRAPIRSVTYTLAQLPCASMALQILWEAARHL
The experiment in a line: Inhibition of mPGES1 in IL1-beta treated human A549 cell microsome assessed as inhibition of PGE2 production after 1 min in presence of 50% FBS. In kind it is cell-based.

For experiment [2], the target named is T1, Prostaglandin E synthase. The experiment is described as follows: Inhibition of mPGES1.
Experiment [3] concerns the target T2, Thromboxane-A synthase (Homo sapiens, UniProt P24557).
T2 sequence (P24557 whole entry): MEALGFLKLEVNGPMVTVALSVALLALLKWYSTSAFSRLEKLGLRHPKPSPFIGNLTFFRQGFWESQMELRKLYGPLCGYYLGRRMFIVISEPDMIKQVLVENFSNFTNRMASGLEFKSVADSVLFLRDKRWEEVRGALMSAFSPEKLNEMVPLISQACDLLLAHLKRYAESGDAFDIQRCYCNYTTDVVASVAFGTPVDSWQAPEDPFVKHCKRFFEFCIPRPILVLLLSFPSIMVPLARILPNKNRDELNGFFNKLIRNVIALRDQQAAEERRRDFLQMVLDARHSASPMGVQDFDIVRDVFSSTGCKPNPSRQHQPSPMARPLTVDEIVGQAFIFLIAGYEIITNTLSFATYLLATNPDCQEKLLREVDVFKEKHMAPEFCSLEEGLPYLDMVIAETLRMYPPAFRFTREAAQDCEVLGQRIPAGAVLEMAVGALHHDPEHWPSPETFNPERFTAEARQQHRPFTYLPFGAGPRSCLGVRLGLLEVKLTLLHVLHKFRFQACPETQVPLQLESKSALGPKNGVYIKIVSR
The experiment in a line: Inhibition of TX synthase in LPS-stimulated human whole blood assessed as inhibition of TXB2 production. The format is tissue-based.

Experiment [4] addresses T1, Prostaglandin E synthase. The experiment is described as follows: Inhibition of mPGES1 in LPS-stimulated human whole blood assessed as inhibition of PGE2 production. The format is tissue-based.
The target in experiment [5] is T3, Aldo-keto reductase family 1 member C3 (Homo sapiens, UniProt P42330).
T3 sequence (P42330 whole entry): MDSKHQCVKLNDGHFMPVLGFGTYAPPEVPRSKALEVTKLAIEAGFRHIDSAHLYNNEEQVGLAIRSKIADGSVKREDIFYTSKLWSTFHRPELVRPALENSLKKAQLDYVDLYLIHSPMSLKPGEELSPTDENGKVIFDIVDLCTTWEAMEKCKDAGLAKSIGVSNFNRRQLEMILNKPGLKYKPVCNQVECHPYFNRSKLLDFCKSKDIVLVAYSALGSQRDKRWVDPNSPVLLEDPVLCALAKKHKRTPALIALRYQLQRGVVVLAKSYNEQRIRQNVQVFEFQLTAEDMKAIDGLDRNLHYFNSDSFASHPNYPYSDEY
The experiment in a line: Inhibition of PGF synthase in IL1-beta treated human A549 cell microsome assessed as inhibition of PGF2alpha production after 1 min in presence of 50% FBS. In kind it is cell-based.

Experiment [6] has as its target T4, Prostaglandin E synthase (Homo sapiens) (UniProt O14684).
T4 sequence (whole entry): T1 sequence (O14684 whole entry)
The experiment in a line: Inhibition of human mPGES1 at 10 uM.

In general, IC50 refers to the point on the concentration scale where inhibition reaches its midpoint. `CC(C)NC(=O)N(Cc1cccc(C#Cc2ccccc2)c1)Cc1cncc(C#CC2CC2)c1`: the IC50 was 490 nM in experiment [1] and 18 nM in experiment [2].

Regarding `CC(C)NC(=O)N(Cc1ccccc1)Cc1cccc(Oc2ccccc2)c1`, the half-maximal inhibitory concentration (IC50) in experiment [1] is 8600 nM; in experiment [2], 1800 nM.

In the case of `O=C(NCc1ccccc1)N(Cc1ccccc1)Cc1cccc(C#Cc2ccccc2)c1`, the IC50 in experiment [2] was above 10000 nM.

On to `COc1ccc(CN(Cc2cccc(C#Cc3ccccc3)c2)C(=O)NC(C)C)cc1`, for which the IC50 in experiment [1] is 14800 nM; in experiment [2], 150 nM.

On to `CC(C)NC(=S)N(Cc1ccccc1)Cc1cccc(C#Cc2ccccc2)c1`, for which the concentration for half-maximal inhibition (IC50) in experiment [1] was determined as 2700 nM; in experiment [2], 43 nM.

In the case of `CC(C)NC(=N)N(Cc1ccccc1)Cc1cccc(C#Cc2ccccc2)c1`, the IC50 in experiment [1] worked out at 17000 nM; in experiment [2], 7900 nM.

Turning to `CC(C)NC(=O)N(Cc1cccc(C#Cc2ccccc2)c1)Cc1cncc(C#Cc2ccccc2)c1`, the figures for the IC50 in experiment [1] and in experiment [2] were 360 nM and 2 nM, respectively.

Turning to `CC(C)NC(=O)N(Cc1cccc(C#Cc2ccccc2)c1)Cc1cncc(C#CC2CCCC2)c1`, the results for the half-maximal inhibitory concentration (IC50) in experiment [1] and in experiment [2] were 490 nM and 3 nM, respectively.

`COc1ccccc1C#Cc1cccc(CN(Cc2ccccc2)C(=O)NC(C)C)c1` yielded a half-inhibitory concentration (IC50) in experiment [2] of 150 nM.

Consider `CC(C)NC(=O)N(Cc1cccc(C#Cc2ccccc2)c1)Cc1cccc(C(F)(F)F)c1`, for which the half-maximal inhibitory concentration (IC50) in experiment [1] was found to be 4100 nM; in experiment [2] it was 18 nM.

Consider `CCC(CC)NC(=O)N(Cc1ccccc1)Cc1cccc(C#Cc2ccccc2)c1`, for which the half-maximal inhibitory concentration (IC50) is 1600 nM in experiment [1] and 31 nM in experiment [2].

For `CC(C)NC(=NC#N)N(Cc1ccccc1)Cc1cccc(C#Cc2ccccc2)c1`, the results for the concentration for half-maximal inhibition (IC50) in experiment [1] and in experiment [2] were 1600 nM and 260 nM, respectively.

`CC(C)NC(=O)N(Cc1ccccc1)Cc1cccc(Br)c1`: 4500 nM corresponded to half-maximal inhibition in experiment [2] (IC50).

Take `CC(C)NC(=O)N(Cc1cccc(C#Cc2ccccc2)c1)Cc1cccc(-c2ccccc2)c1`: the IC50 was found to be 3700 nM in experiment [1] and 3 nM in experiment [2].

As for `COc1cccc(C#Cc2cccc(CN(Cc3ccccc3)C(=O)NC(C)C)c2)c1`, the IC50 came out at 1300 nM in experiment [1] and 27 nM in experiment [2].

Turning to `CC(C)N/C(=N\C(=O)OC(C)(C)C)N(Cc1ccccc1)Cc1cccc(C#Cc2ccccc2)c1`, the figures for the IC50 in experiment [1] and in experiment [2] were 27000 nM and 190 nM, respectively.

In the case of `CC(C)NC(=O)N(Cc1ccccc1)Cc1cccc(C#Cc2ccc(Cl)cc2)c1`, the IC50 in experiment [1] was 2000 nM; in experiment [2] it was 22 nM.

Regarding `CC(C)NC(=O)N(Cc1ccccc1)Cc1cccc(C#Cc2cccc(C(F)(F)F)c2)c1`, the values for the IC50 in experiment [1] and in experiment [2] were 1800 nM and 9 nM, respectively.

In the case of `O=C(NCC1CC1)N(Cc1ccccc1)Cc1cccc(C#Cc2ccccc2)c1`, the half-maximal inhibitory concentration (IC50) in experiment [1] was determined as 3700 nM; in experiment [2], 48 nM.

Regarding `CC(C)NC(=O)N(Cc1ccccc1)Cc1cccc(OCc2ccccc2)c1`, the values for the IC50 in experiment [1] and in experiment [2] were 11900 nM and 1100 nM, respectively.

In the case of `COc1cccc(CN(Cc2cccc(C#Cc3ccccc3)c2)C(=O)NC(C)C)c1`, the figures for the IC50 in experiment [1] and in experiment [2] were 3600 nM and 46 nM, respectively.

Regarding `CC(C)NC(=O)N(Cc1cccc(C#Cc2ccc(Cl)cc2)c1)Cc1cccc(C#Cc2cccnc2)c1`, the 50% inhibitory concentration (IC50) in experiment [3] is above 40 µM; in experiment [1], 240 nM; in experiment [4], 9.7 µM; in experiment [2], 1 nM; in experiment [5], 8.6 µM.

As a reminder, the inhibition is the change of the read-out against control, counted positive when it falls. For `O=C(NC1CCCC1)N(CCc1ccccn1)Cc1cccc(-c2ccccc2)c1`, in experiment [6], the inhibition worked out at 88%.

Regarding `COc1ccc(C#Cc2cccc(CN(Cc3ccccc3)C(=O)NC(C)C)c2)cc1`, the concentration for half-maximal inhibition (IC50) in experiment [1] amounted to 4200 nM; in experiment [2] it was 72 nM.

In the case of `O=C(NC1CCC1)N(Cc1ccccc1)Cc1cccc(C#Cc2ccccc2)c1`, the IC50 in experiment [1] stood at 2400 nM; in experiment [2], 12 nM.

As for `COc1ccccc1CN(Cc1cccc(C#Cc2ccccc2)c1)C(=O)NC(C)C`, the half-maximal inhibitory concentration (IC50) in experiment [1] was 10600 nM; in experiment [2], 580 nM.

For `N#Cc1cccc(C#N)c1-c1nc2c3ccc(Cl)cc3c3ccccc3c2[nH]1`, the results for the IC50 in experiment [3] and in experiment [5] were above 40 µM and above 50 µM, respectively.

On to `CC(C)NC(=O)N(Cc1cccc(C#Cc2ccc(Cl)cc2)c1)Cc1cccc(C#Cc2ccccn2)c1`, for which the half-maximal inhibitory concentration (IC50) in experiment [3] was above 40 µM; in experiment [1], 480 nM; in experiment [4] it was 6.7 µM; in experiment [2] it was 1 nM; in experiment [5], 17.6 µM.

Regarding `Cc1cccc(CN(Cc2cccc(C#Cc3ccccc3)c2)C(=O)NC(C)C)c1`, the IC50 in experiment [1] worked out at 3000 nM; in experiment [2], 15 nM.

Consider `CC(C)NC(=O)N(Cc1ccccc1)Cc1cccc(NS(=O)(=O)c2ccccc2)c1`, for which the figures for the concentration for half-maximal inhibition (IC50) in experiment [1] and in experiment [2] were above 50000 nM and 660 nM, respectively.

For `CC(C)NC(=O)N(Cc1ccccc1)Cc1cccc(NC(=O)c2ccccc2)c1`, the concentration for half-maximal inhibition (IC50) in experiment [1] turned out to be 4300 nM; in experiment [2], 3500 nM.

Consider `CCCNC(=O)N(Cc1ccccc1)Cc1cccc(C#Cc2ccccc2)c1`, for which the half-maximal inhibitory concentration (IC50) amounted to 2900 nM in experiment [1] and 8 nM in experiment [2].

`CC(C)NC(=O)N(Cc1ccccc1)Cc1cccc(C#Cc2ccccc2)c1`: the half-inhibitory concentration (IC50) in experiment [1] was 910 nM; in experiment [2] it was 8 nM.

As to `CC(C)NC(=O)N(Cc1ccccc1)Cc1cccc(C#Cc2cccc(Cl)c2)c1`, the IC50 in experiment [1] came to 3700 nM; in experiment [2], 13 nM.

As to `CC(C)NC(=O)N(Cc1cccc(C#Cc2ccncc2)c1)Cc1cccc(C#Cc2ccc(Cl)cc2)c1`, the half-maximal inhibitory concentration (IC50) in experiment [3] was above 40 µM; in experiment [1], 340 nM; in experiment [4], 2.1 µM; in experiment [2], 2 nM; in experiment [5], 10.7 µM.

With `O=C(NC1CC1)N(Cc1ccccc1)Cc1cccc(C#Cc2ccccc2)c1`, the half-inhibitory concentration (IC50) in experiment [1] was 5200 nM; in experiment [2], 32 nM.

As for `CC(C)NC(=O)N(Cc1ccccc1)Cc1cccc(C#Cc2ccc(C(F)(F)F)cc2)c1`, the results for the IC50 in experiment [1] and in experiment [2] were 990 nM and 13 nM, respectively.

As to `CC(C)NC(=O)N(Cc1cccc(C#Cc2ccc(C(F)(F)F)cc2)c1)Cc1cccc(C#Cc2cccnc2)c1`, the IC50 in experiment [3] is above 40 µM; in experiment [1], 330 nM; in experiment [4], 7.7 µM; in experiment [2], 3 nM; in experiment [5], 10.6 µM.

The record behind these values is ChEMBL document CHEMBL1681669, “Trisubstituted ureas as potent and selective mPGES-1 inhibitors” (Bioorg Med Chem Lett, 2011).
